We go through 25 compounds from article PMC6943726, “Discovery of 8-Amino-Substituted 2-Phenyl-2,7-Naphthyridinone Derivatives as New c-Kit/VEGFR-2 Kinase Inhibitors” (Molecules, 2019).

Where only a bound is given, the exact number is not on record here.

What all share (format): biochemical
The target in one test is T1, MET (Homo sapiens, UniProt P08581).
T1 construct: was evaluated using an enzyme assay with a recombinant kinase domain; purchased Invitrogen (Carlsbad, CA, US)
In words: HTRF enzyme assay with recombinant MET kinase domain. The following applies: purified recombinant MET kinase domain, read-out: Inhibitory Activity, IC50, MET. As for the experimental part: (§1) The ability of the synthesized compounds to inhibit MET, c-Kit, and VEGFR-2 activities was evaluated using an enzyme assay with a recombinant kinase domain [29]. Based on the structure activity relationship (SAR) of MET inhibitors, we proposed that the removal of the key diaryl ether fragments in compound 3 would result in a loss of MET activity.
(§2) The ability of compounds to inhibit the activity of three kinases (MET, c-Kit, and VEGFR-2) was tested in vitro [30]. Enzyme assays were run in homogeneous time-resolved fluorescence (HTRF) format in 384-well microtiter plates using purified kinases purchased from Invitrogen (Carlsbad, CA, US). The HTRF KinEASE TK kit (contains substrate-biotin, antibody-cryptate, streptavidin-XL665, 5×enzymatic buffer, and detection buffer) was purchased from Cisbio (Codolet, France), and the kinase assays were performed according to the manufacturer’s instructions. After the kinases and the compounds incubated at 25~30 °C for 5 min, the reactions were initiated by the addition of 2 μL of mixed substrate solution (mixed solution of ATP (Sigma, Shanghai, China) and substrate-biotin). The final concentrations of kinases were at EC80 and the total reaction volume was 8 μL. Plates were incubated at 30 °C for 30~60 min, then the reactions were quenched by the addition 8 μL mixed detection solution (mixed solution of antibody-cryptate and streptavidin-XL665 in detection buffer). The fluorescence excitation wavelength was […]. The fluorescence at 665 nm (acceptor emission wavelength) and 620 nm (donor emission wavelength) was measured with a PHERAstar FS plate reader (BMG, LABTECH, Ortenberg, Germany) using a time delay of 50 μs. All kinase assays were conducted using ATP concentrations below the enzyme Kmapp and kinase-specific biotinylated substrate peptides.
(§3) The data for dose responses were plotted as percentage of inhibition calculated with the data reduction formula 100 × [1 − (U1 − C2)/(C1 − C2)] versus concentration of compound, where U is the emission ratio of 665 nm and 620 nm of test sample, C1 is the average value obtained for solvent control (2% DMSO), and C2 is the average value obtained for no reaction control (no kinase sample). Inhibition curves were generated by plotting percentage of control activity versus log10 of the concentration of each […]. The IC50 values were calculated by nonlinear regression with Graphpad Prism 5 (GraphPad Software, San Diego, CA).
A general note: In TR-FRET formats the signal depends on donor and acceptor labels being close together.

The target of the next test is T2, c-Kit (Homo sapiens, UniProt P10721).
T2 construct: was evaluated using an enzyme assay with a recombinant kinase domain; purchased Invitrogen (Carlsbad, CA, US)
In words: HTRF enzyme assay with recombinant c-Kit kinase domain. Particulars: for IC50: purified recombinant c-Kit kinase domain, HTRF, read-out: Inhibitory Activity, IC50, c-Kit. The protocol: as §1, §2, §3

The target in another test is T3, VEGFR-2 (Homo sapiens, UniProt P35968).
T3 construct: was evaluated using an enzyme assay with a recombinant kinase domain; purchased Invitrogen (Carlsbad, CA, US)
The test is described as follows: HTRF enzyme assay with recombinant VEGFR-2 kinase domain. Particulars: for IC50: purified recombinant VEGFR-2 kinase domain, HTRF, read-out: Inhibitory Activity, IC50, VEGFR-2. The protocol:
as §1, §2, §3

The mark [1] stands for this setting: ratio of IC50 values vs compound 3.

T2 sequence (P10721 589-937 limits assumed): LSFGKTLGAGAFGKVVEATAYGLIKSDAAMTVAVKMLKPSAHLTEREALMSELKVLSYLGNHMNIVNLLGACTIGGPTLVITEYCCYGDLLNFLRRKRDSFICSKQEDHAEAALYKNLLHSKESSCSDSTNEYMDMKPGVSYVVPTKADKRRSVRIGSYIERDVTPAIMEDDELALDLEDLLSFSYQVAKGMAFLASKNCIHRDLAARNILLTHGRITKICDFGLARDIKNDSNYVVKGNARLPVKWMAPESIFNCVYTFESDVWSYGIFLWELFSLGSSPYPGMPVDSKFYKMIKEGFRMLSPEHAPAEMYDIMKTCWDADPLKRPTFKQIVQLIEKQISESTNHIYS
T3 sequence (P35968 834-1162 limits assumed): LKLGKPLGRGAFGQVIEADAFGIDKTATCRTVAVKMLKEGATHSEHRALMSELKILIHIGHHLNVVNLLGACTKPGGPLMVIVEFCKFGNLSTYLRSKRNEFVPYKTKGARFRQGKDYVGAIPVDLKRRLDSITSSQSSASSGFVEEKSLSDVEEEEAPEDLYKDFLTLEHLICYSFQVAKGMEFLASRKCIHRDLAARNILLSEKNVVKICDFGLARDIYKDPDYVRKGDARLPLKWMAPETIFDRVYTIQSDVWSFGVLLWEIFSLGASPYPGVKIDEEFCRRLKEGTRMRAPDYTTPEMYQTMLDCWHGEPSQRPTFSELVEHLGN
T1 sequence (P08581 1078-1345 limits assumed): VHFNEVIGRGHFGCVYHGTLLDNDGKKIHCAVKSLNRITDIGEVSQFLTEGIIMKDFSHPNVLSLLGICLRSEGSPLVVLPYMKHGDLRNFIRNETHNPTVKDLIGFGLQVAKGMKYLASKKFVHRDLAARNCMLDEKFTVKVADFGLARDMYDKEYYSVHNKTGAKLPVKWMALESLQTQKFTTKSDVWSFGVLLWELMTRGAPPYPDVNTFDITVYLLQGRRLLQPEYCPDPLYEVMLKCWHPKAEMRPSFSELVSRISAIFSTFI

Usually IC50 stands for the midpoint of a concentration-inhibition curve. Regarding `Nc1nccc(Oc2ccc(Nc3nccc4ccn(-c5ccc(F)cc5)c(=O)c34)cc2F)c1Cl` [Compound 3, reference compound], the values for the IC50 at MET, on c-Kit and at VEGFR-2 were 0.0099 µM, 0.33 µM and 0.28 µM, respectively.

As for `O=c1c2c(Nc3ccccc3)nccc2ccn1-c1ccc(F)cc1` [Compound 9a, 2-(4-fluorophenyl)-8-(phenylamino)-2,7-naphthyridin-1(2H)-one], the IC50 on MET, on c-Kit and at VEGFR-2 was greater than 5 µM in each case.

Consider `Cc1cccc(C)c1Nc1nccc2ccn(-c3ccc(F)cc3)c(=O)c12` [Compound 9b, 8-((2,6-dimethylphenyl)amino)-2-(4-fluorophenyl)-2,7-naphthyridin-1(2H)-one], for which the IC50 at MET, at c-Kit and on VEGFR-2 was greater than 5 µM in each case.

In the case of `O=c1c2c(Nc3c(Cl)cccc3Cl)nccc2ccn1-c1ccc(F)cc1` [Compound 9c, 8-((2,6-dichlorophenyl)amino)-2-(4-fluorophenyl)-2,7-naphthyridin-1(2H)-one], the results for the IC50 at MET, at c-Kit and at VEGFR-2 were greater than 5 µM, greater than 5 µM and 0.691 µM, respectively.

With `O=c1c2c(Nc3cccnc3)nccc2ccn1-c1ccc(F)cc1` [Compound 9d, 2-(4-fluorophenyl)-8-(pyridin-3-ylamino)-2,7-naphthyridin-1(2H)-one], the IC50 on MET, on c-Kit and on VEGFR-2 was greater than 5 µM in each case.

Take `O=c1c2c(Nc3ccc4ccncc4c3)nccc2ccn1-c1ccc(F)cc1` [Compound 9e, 2-(4-fluorophenyl)-8-(isoquinolin-7-ylamino)-2,7-naphthyridin-1(2H)-one]: the IC50 on MET, at c-Kit and at VEGFR-2 was greater than 5 µM throughout.

As to `O=c1c2c(NCc3ccccc3)nccc2ccn1-c1ccc(F)cc1` [Compound 9f, 8-(benzylamino)-2-(4-fluorophenyl)-2,7-naphthyridin-1(2H)-one], the IC50 at MET, on c-Kit and on VEGFR-2 was greater than 5 µM in each case.

`O=c1c2c(NCc3ccncc3)nccc2ccn1-c1ccc(F)cc1` [Compound 9g, 2-(4-fluorophenyl)-8-((pyridin-4-ylmethyl)amino)-2,7-naphthyridin-1(2H)-one]: the IC50 on MET was greater than 5 µM; on c-Kit it was 0.832 µM; on VEGFR-2, 0.601 µM. In addition, the “c-Kit potency, fold less potent than compound 3” value on c-Kit (setting [1]) turned out to be 2.5 fold.

As for `O=c1c2c(NCc3cccnc3)nccc2ccn1-c1ccc(F)cc1` [Compound 9h, 2-(4-fluorophenyl)-8-((pyridin-3-ylmethyl)amino)-2,7-naphthyridin-1(2H)-one], the IC50 at MET, at c-Kit and on VEGFR-2 was greater than 5 µM each time.

Consider `O=c1c2c(NCc3ccco3)nccc2ccn1-c1ccc(F)cc1` [Compound 9i, 2-(4-fluorophenyl)-8-((furan-2-ylmethyl)amino)-2,7-naphthyridin-1(2H)-one], for which the IC50 at MET, on c-Kit and at VEGFR-2 was greater than 5 µM each time.

For `O=c1c2c(NCc3cccc4ccccc34)nccc2ccn1-c1ccc(F)cc1` [Compound 9j, 2-(4-fluorophenyl)-8-((naphthalen-1-ylmethyl)amino)-2,7-naphthyridin-1(2H)-one], the IC50 on MET, on c-Kit and on VEGFR-2 was greater than 5 µM in each case.

On to `O=c1c2c(NCc3ccnc4ccccc34)nccc2ccn1-c1ccc(F)cc1` [Compound 9k, 2-(4-fluorophenyl)-8-((quinolin-4-ylmethyl)amino)-2,7-naphthyridin-1(2H)-one], for which the figures for the IC50 at MET, at c-Kit and on VEGFR-2 were greater than 5 µM, 0.0085 µM and 0.238 µM, respectively. The “c-Kit potency, fold more potent than compound 3” value on c-Kit (setting [1]) turned out to be 38.8 fold.

Consider `Cc1cc2ccnc(Nc3cccnc3)c2c(=O)n1-c1ccc(F)cc1` [Compound 10a, 2-(4-fluorophenyl)-3-methyl-8-(pyridin-3-ylamino)-2,7-naphthyridin-1(2H)-one], for which the IC50 on MET, on c-Kit and on VEGFR-2 was greater than 5 µM throughout.

Take `Cc1cc2ccnc(NCc3cccnc3)c2c(=O)n1-c1ccc(F)cc1` [Compound 10b, 2-(4-fluorophenyl)-3-methyl-8-((pyridin-3-ylmethyl)amino)-2,7-naphthyridin-1(2H)-one]: the IC50 at MET, at c-Kit and at VEGFR-2 was greater than 5 µM in each case.

Turning to `Cc1cc2ccnc(NCc3ccncc3)c2c(=O)n1-c1ccc(F)cc1` [Compound 10c, 2-(4-fluorophenyl)-3-methyl-8-((pyridin-4-ylmethyl)amino)-2,7-naphthyridin-1(2H)-one], the half-inhibitory concentration (IC50) at MET, at c-Kit and at VEGFR-2 was greater than 5 µM each time.

In the case of `Cc1cc2ccnc(NCc3ccnc4ccccc34)c2c(=O)n1-c1ccc(F)cc1` [Compound 10d, 2-(4-fluorophenyl)-3-methyl-8-((quinolin-4-ylmethyl)amino)-2,7-naphthyridin-1(2H)-one], the IC50 was greater than 5 µM at MET, 1.61 µM at c-Kit and 0.208 µM on VEGFR-2. In addition, the “c-Kit inhibitory activity (in words)” value on c-Kit is “weak c-Kit inhibitory activity”.

As to `Cc1cc2ccnc(Nc3cccnc3)c2c(=O)n1-c1ccccc1` [Compound 10e, 3-methyl-2-phenyl-8-(pyridin-3-ylamino)-2,7-naphthyridin-1(2H)-one], the IC50 at MET, at c-Kit and on VEGFR-2 was greater than 5 µM throughout.

Turning to `Cc1cc2ccnc(NCc3cccnc3)c2c(=O)n1-c1ccccc1` [Compound 10f, 3-methyl-2-phenyl-8-((pyridin-3-ylmethyl)amino)-2,7-naphthyridin-1(2H)-one], the IC50 on MET, at c-Kit and on VEGFR-2 was greater than 5 µM in each case.

`Cc1cc2ccnc(NCc3ccncc3)c2c(=O)n1-c1ccccc1` [Compound 10g, 3-methyl-2-phenyl-8-((pyridin-4-ylmethyl)amino)-2,7-naphthyridin-1(2H)-one]: the half-inhibitory concentration (IC50) on MET, at c-Kit and on VEGFR-2 was greater than 5 µM in each case.

Turning to `Cc1cc2ccnc(NCc3ccnc4ccccc34)c2c(=O)n1-c1ccccc1` [Compound 10h, 3-methyl-2-phenyl-8-((quinolin-4-ylmethyl)amino)-2,7-naphthyridin-1(2H)-one], the IC50 at MET was greater than 5 µM; at c-Kit, greater than 5 µM; at VEGFR-2 it was 1.03 µM.

In the case of `Cc1cc2ccnc(Nc3cccnc3)c2c(=O)n1-c1ccc(Cl)cc1` [Compound 10i, 2-(4-chlorophenyl)-3-methyl-8-(pyridin-3-ylamino)-2,7-naphthyridin-1(2H)-one], the IC50 at MET, at c-Kit and on VEGFR-2 was greater than 5 µM throughout.

With `Cc1cc2ccnc(NCc3cccnc3)c2c(=O)n1-c1ccc(Cl)cc1` [Compound 10j, 2-(4-chlorophenyl)-3-methyl-8-((pyridin-3-ylmethyl)amino)-2,7-naphthyridin-1(2H)-one], the IC50 at MET, on c-Kit and at VEGFR-2 was greater than 5 µM each time.

For the compound `Cc1cc2ccnc(NCc3ccncc3)c2c(=O)n1-c1ccc(Cl)cc1` [Compound 10k, 2-(4-chlorophenyl)-3-methyl-8-((pyridin-4-ylmethyl)amino)-2,7-naphthyridin-1(2H)-one], the IC50 is greater than 5 µM at MET, greater than 5 µM at c-Kit and 0.263 µM at VEGFR-2.

On to `Cc1cc2ccnc(NCc3ccnc4ccccc34)c2c(=O)n1-c1ccc(Cl)cc1` [Compound 10l, 2-(4-chlorophenyl)-3-methyl-8-((quinolin-4-ylmethyl)amino)-2,7-naphthyridin-1(2H)-one], for which the IC50 at MET is greater than 5 µM; at c-Kit it was 0.107 µM; at VEGFR-2, 0.0565 µM. Besides, the “c-Kit inhibitory activity (in words)” value at c-Kit is given as “slightly stronger c-Kit inhibitory activity than compound 3”. Moreover, the “VEGFR-2 potency, fold more potent than compound 3” value at VEGFR-2 (setting [1]) is on record as 5.0–8.8 fold.

Regarding `Cc1cc2ccnc(Nc3cccnc3)c2c(=O)n1-c1ccc(OC(F)(F)F)cc1` [Compound 10m, 3-methyl-8-(pyridin-3-ylamino)-2-(4-(trifluoromethoxy)phenyl)-2,7-naphthyridin-1(2H)-one], the IC50 on MET, on c-Kit and at VEGFR-2 was greater than 5 µM throughout.
